These results are taken from ChEMBL document CHEMBL6103575, “Design, synthesis and evaluation of (E)-1-(4-(2-(1H-pyrazol-5-yl)vinyl)phenyl) derivatives as next generation selective RET inhibitors overcoming RET solvent front mutations (G810C/R)” (Eur J Med Chem, 2025).

Experiment [1] deals with BaF3. In words: Antiproliferative activity against mouse BaF3 cells harbouring CCDC6-RET assessed as inhibition of cell proliferation incubated for 72 hrs by CCK-8 assay. The settings on record: BaF3, 72 h. The format is functional, cell-based.
For experiment [2], the system named is Proto-oncogene tyrosine-protein kinase receptor Ret (Homo sapiens), P07949 [G810R]. In words: Inhibition of RET (unknown origin) G810R mutant at 1 uM relative to control.
Chain of Proto-oncogene tyrosine-protein kinase receptor Ret (Homo sapiens), P07949 [G810R] (P07949 whole entry G810R): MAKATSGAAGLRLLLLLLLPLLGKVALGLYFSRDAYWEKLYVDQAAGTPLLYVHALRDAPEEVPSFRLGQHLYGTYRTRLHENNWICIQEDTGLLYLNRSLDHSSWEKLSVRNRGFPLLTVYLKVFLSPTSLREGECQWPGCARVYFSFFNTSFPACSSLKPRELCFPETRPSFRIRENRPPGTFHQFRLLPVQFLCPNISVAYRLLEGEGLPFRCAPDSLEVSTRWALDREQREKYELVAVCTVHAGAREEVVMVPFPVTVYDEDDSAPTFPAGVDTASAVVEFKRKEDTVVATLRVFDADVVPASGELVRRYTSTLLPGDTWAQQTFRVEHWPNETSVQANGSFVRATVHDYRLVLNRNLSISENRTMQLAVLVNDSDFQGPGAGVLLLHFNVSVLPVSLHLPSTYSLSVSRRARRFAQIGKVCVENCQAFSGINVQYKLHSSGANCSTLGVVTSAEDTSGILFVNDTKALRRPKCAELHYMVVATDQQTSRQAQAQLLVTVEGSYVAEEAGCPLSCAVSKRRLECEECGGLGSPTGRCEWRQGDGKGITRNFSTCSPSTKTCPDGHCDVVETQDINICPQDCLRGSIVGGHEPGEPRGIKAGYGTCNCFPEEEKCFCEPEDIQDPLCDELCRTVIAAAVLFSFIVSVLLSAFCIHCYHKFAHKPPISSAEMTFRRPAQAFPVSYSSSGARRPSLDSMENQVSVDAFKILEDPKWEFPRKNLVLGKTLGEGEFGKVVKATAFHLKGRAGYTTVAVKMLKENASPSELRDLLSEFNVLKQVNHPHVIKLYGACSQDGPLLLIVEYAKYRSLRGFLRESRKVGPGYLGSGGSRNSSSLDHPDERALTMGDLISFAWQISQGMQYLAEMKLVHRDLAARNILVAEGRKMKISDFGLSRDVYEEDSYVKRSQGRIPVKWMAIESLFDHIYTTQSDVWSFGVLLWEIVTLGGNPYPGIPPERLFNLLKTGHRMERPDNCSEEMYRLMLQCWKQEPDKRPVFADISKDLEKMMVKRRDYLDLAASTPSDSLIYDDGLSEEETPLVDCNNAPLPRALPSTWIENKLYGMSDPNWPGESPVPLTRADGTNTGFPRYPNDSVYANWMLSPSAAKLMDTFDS
For experiment [3], the target named is Platelet-derived growth factor receptor alpha (Homo sapiens, UniProt P16234). The experiment can be described thus: Inhibition of PDGFRalpha (unknown origin).
Chain of Platelet-derived growth factor receptor alpha (P16234 whole entry): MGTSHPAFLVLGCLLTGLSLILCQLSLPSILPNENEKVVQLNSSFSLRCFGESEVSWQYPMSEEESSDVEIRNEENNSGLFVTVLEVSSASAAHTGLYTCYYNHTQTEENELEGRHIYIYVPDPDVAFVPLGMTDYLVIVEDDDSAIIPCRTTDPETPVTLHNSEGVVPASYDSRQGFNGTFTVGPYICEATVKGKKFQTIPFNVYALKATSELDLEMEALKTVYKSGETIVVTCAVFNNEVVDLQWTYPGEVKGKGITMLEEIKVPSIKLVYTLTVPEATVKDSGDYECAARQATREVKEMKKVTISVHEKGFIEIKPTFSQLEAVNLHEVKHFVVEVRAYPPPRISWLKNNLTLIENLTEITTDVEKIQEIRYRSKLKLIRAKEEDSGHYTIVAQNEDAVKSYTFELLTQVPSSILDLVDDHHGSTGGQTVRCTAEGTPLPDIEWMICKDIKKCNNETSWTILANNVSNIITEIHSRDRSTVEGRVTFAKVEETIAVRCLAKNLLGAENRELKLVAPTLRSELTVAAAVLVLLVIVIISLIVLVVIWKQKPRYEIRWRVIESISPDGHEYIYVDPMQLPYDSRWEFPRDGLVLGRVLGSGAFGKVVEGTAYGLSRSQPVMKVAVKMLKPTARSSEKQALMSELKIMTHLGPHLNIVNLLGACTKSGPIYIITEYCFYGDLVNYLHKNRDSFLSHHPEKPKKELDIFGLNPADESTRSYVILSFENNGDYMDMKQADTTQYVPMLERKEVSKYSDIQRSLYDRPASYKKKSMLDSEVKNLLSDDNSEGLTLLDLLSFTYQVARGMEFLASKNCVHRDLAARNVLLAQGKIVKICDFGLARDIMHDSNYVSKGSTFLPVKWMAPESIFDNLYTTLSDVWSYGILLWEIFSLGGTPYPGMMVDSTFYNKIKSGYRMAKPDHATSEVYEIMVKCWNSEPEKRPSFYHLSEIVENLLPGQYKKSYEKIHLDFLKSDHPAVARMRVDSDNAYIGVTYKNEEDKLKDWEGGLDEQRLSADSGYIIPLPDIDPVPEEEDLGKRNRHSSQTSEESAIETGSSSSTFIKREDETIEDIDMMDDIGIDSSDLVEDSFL
For experiment [4], the target named is BDNF/NT-3 growth factors receptor (Homo sapiens, UniProt Q16620). The experiment can be described thus: Inhibition of TRKB (unknown origin).
Chain of BDNF/NT-3 growth factors receptor (Q16620 whole entry): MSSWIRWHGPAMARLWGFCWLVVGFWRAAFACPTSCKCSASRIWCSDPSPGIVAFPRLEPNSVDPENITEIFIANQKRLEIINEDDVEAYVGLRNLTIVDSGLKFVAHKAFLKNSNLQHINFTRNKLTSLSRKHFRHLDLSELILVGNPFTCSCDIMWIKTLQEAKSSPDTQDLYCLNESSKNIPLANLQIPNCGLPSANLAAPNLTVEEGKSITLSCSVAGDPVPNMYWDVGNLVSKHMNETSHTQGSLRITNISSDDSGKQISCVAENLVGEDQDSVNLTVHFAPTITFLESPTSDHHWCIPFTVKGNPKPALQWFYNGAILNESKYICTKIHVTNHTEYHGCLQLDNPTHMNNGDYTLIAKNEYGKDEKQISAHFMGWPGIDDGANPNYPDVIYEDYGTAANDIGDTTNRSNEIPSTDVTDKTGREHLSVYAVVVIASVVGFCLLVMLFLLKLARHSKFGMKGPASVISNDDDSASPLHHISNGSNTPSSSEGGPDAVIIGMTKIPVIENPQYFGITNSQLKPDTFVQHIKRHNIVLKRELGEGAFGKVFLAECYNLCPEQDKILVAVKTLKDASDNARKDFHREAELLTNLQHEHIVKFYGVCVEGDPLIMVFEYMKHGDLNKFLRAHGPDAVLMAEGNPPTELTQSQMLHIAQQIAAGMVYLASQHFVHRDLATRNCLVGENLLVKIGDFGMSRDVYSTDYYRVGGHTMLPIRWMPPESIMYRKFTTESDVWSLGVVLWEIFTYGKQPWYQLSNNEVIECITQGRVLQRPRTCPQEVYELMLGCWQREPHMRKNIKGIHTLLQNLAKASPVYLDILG
A further experiment concerns the target T1, Ephrin type-B receptor 4 (Homo sapiens, UniProt P54760).
T1 sequence (P54760 whole entry): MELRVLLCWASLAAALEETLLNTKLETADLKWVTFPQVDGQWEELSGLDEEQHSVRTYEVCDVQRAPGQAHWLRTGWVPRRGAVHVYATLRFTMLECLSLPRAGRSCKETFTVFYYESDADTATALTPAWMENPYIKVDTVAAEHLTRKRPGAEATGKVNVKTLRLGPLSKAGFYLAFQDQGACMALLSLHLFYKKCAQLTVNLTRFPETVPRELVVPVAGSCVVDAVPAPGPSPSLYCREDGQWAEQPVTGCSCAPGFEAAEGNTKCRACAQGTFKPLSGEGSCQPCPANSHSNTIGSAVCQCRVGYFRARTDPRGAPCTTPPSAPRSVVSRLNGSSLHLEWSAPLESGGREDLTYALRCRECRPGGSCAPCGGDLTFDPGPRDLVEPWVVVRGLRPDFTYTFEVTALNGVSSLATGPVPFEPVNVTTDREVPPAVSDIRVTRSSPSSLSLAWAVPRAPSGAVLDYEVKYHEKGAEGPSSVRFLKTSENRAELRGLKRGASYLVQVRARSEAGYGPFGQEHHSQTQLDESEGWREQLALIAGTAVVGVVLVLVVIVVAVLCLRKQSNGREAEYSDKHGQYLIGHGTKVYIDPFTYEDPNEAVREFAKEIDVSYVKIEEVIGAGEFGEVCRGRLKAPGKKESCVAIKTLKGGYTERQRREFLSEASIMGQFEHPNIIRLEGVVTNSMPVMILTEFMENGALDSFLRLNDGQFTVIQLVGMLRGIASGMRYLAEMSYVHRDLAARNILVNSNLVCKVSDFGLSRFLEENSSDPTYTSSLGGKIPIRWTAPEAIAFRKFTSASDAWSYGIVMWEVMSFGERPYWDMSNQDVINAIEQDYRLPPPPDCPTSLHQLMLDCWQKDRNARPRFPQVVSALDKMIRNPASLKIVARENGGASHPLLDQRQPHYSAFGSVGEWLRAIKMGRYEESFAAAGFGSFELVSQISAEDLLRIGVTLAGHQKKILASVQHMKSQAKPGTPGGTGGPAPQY
In words: Inhibition of EPHB4 (unknown origin).

Experiment [5] in a line: Induction of apoptosis in mouse BaF3 cells harboring CCDC6-RET assessed as late apoptotic cells at 10 nM incubated for 48 hrs by Annexin V-PE staining based flow cytometry analysis (Rvb =2.44%). Type of experiment: functional.
The nature of experiment [6]: Induction of apoptosis in mouse BaF3 cells harboring CCDC6-RET assessed as early apoptotic cells at 30 nM incubated for 48 hrs by Annexin V-PE staining based flow cytometry analysis (Rvb =6.21%). The format is functional. (Flow cytometry measures light scatter and fluorescence of single cells or particles in a stream.)
A short description of experiment [7]: Induction of apoptosis in mouse BaF3 cells harboring CCDC6-RET assessed as viable cells at 300 nM incubated for 48 hrs by Annexin V-PE staining based flow cytometry analysis (Rvb =91.16%). The format is functional. The settings on record: read-out: Activity.
Experiment [8] in a line: Induction of apoptosis in mouse BaF3 cells harboring CCDC6-RET assessed as necrotic cells at 300 nM incubated for 48 hrs by Annexin V-PE staining based flow cytometry analysis (Rvb =0.19%). Type of experiment: functional.
Experiment [9] in a line: Induction of apoptosis in mouse BaF3 cells harboring CCDC6-RET G810C mutant assessed as necrotic cells at 30 nM incubated for 48 hrs by Annexin V-PE staining based flow cytometry analysis (Rvb =0.48%). Type of experiment: functional.
Experiment [10] can be described thus: Induction of apoptosis in mouse BaF3 cells harboring CCDC6-RET G810C mutant assessed as viable cells at 100 nM incubated for 48 hrs by Annexin V-PE staining based flow cytometry analysis (Rvb =86.47%). Type of experiment: functional. The settings on record: read-out: Activity.
A short description of experiment [11]: Induction of apoptosis in mouse BaF3 cells harboring CCDC6-RET G810C mutant assessed as necrotic cells at 100 nM incubated for 48 hrs by Annexin V-PE staining based flow cytometry analysis (Rvb =0.48%). Type of experiment: functional.
Experiment [12] can be described thus: Induction of apoptosis in mouse BaF3 cells harboring CCDC6-RET G810C mutant assessed as viable cells at 300 nM incubated for 48 hrs by Annexin V-PE staining based flow cytometry analysis (Rvb =86.47%). Type of experiment: functional. The settings on record: read-out: Activity.
Experiment [13] in a line: Induction of apoptosis in mouse BaF3 cells harboring CCDC6-RET G810R mutant assessed as late apoptotic cells at 10 nM incubated for 48 hrs by Annexin V-PE staining based flow cytometry analysis (Rvb =3.21%). The format is functional.
A short description of experiment [14]: Induction of apoptosis in mouse BaF3 cells harboring CCDC6-RET G810R mutant assessed as early apoptotic cells at 30 nM incubated for 48 hrs by Annexin V-PE staining based flow cytometry analysis (Rvb =10 %). The format is functional.
Experiment [15] in a line: Induction of cell cycle arrest in mouse BaF3 cells harboring CCDC6-RET G810C mutant assessed as accumulation of cells at S phase at 10 nM incubated for 24 hrs by propidium iodide staining based analysis (reference value: 12.47%). The format is functional.
Experiment [16] can be described thus: Induction of cell cycle arrest in mouse BaF3 cells harboring CCDC6-RET G810C mutant assessed as accumulation of cells at S phase at 30 nM incubated for 24 hrs by propidium iodide staining based analysis (reference value: 12.47%). The format is functional.
The nature of experiment [17]: Induction of cell cycle arrest in mouse BaF3 cells harboring CCDC6-RET G810R mutant assessed as accumulation of cells at G0/G1 phase at 30 nM incubated for 24 hrs by propidium iodide staining based analysis (reference value: 52.63%). The format is functional.
Experiment [18] is described as follows: Induction of cell cycle arrest in mouse BaF3 cells harboring CCDC6-RET G810R mutant assessed as accumulation of cells at G0/G1 phase at 300 nM incubated for 24 hrs by propidium iodide staining based analysis (reference value: 52.63%). The format is functional.
A short description of experiment [19]: Induction of cell cycle arrest in mouse BaF3 cells harboring CCDC6-RET G810R mutant assessed as accumulation of cells at S phase at 300 nM incubated for 24 hrs by propidium iodide staining based analysis (reference value: 13.66%). Type of experiment: functional.
Experiment [20] deals with BaF3. The experiment can be described thus: Inhibition of SHC phosphorylation in mouse BaF3 cells harboring CCDC6-RET incubated for 12 hrs by Western blotting analysis. Type of experiment: cell-based. To be noted: dose <= 300.0 nM.
Experiment [21] deals with BaF3. In words: Antitumor activity against mouse BaF3 cells implanted in SCID mouse assessed as tumor growth inhibition at 25 mg/kg, ip administered once daily for 10 days. To be noted: BaF3, 240 h, time 10 day, read-out: TGI. The format is functional.

Molecules are shown by their SMILES. pIC50: −log10 of the molar value.

`COc1cncc(-c2cn[nH]c2/C=C/c2ccc(NC(=O)Nc3cc(C(C)(C)C(F)(F)F)on3)c(Cl)c2)c1`: the pIC50 with BaF3 [1] was 7.89; in [3] it was 7.76; in experiment [4], 7.06; against Ephrin type-B receptor 4, 7.44. Besides, the inhibition in [2] was 74%; in the experiment with BaF3 [20], “Dose-dependent-effect”. The Activity in [5] stood at 2.8%; in experiment [6], 22.34%; in [8], 0.04%; in experiment [9], 0.47%; in [11], 0.24%; in [13], 3.29%. For the same compound, the Activity worked out at 9.96% in experiment [14]; 12.31% in experiment [15]; 11.11% in experiment [16]; 53.02% in [17]; 78.85% in [18]; 4.8% in experiment [19]. Moreover, the viability at 0.3 µM in experiment [7] stood at 13.9%; in [12] it was 8.22%. For the same compound, the viability at 0.1 µM in [10] was determined as 60%. For the same compound, the inhibition in vivo at 25 mg/kg in the experiment with BaF3 [21] was 39.7%.

As usually defined, the pIC50 is the IC50 on a negative log10 scale, so that one unit is a factor of ten. As usually defined, the inhibition is how much of the control response was suppressed.
